Assay results published in the supplement of paper PMC10307832.

Assays:
Experiment in all cases: relative viability (nuclei count vs DMSO), 5 days (fraction); higher = more cells survive
[1] = compound: CC1=C(C=C(C=C1)NC(=O)C2=CC(=CC=C2)C(C)(C)C#N)NC3=CC4=C(C=C3)N=CN(C4=O)C [AZ628] + Nc1nc2[nH]cc(CCc3ccc(C(=O)N[C@@H](CCC(=O)O)C(=O)O)cc3)c2c(=O)[nH]1 [Pemetrexed] (partner 0.2 µM)
Summary of the method: (§1)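 Lung cancer cell lines, seeded in 1536-well plates, were treated the following day by pin tool with a single drug or with five library-drug doses (not always all listed) in √10 steps on top of a fixed anchor-drug dose. Cells were fixed and nuclei stained in one step after 5 days, and nuclei were counted. Relative viability is the nuclei count for treated wells divided by that for vehicle wells, reported as medians of duplicate plates.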

[2] = compound: C[As](C)SC[C@H](NC(=O)CC[C@H](N)C(=O)O)C(=O)NCC(=O)O [Darinaparsin] + CS(=O)(=O)CCNCc1ccc(-c2ccc3ncnc(Nc4ccc(OCc5cccc(F)c5)c(Cl)c4)c3c2)o1 [Lapatinib] (partner 2 µM)
Summary of the method: as §1

[3] = compound: C[As](C)SC[C@H](NC(=O)CC[C@H](N)C(=O)O)C(=O)NCC(=O)O [Darinaparsin] + Cc1cc(Nc2cc(N3CCN(C)CC3)nc(Sc3ccc(NC(=O)C4CC4)cc3)n2)n[nH]1 [Tozasertib] (partner 0.1 µM)
Summary of the method: as §1

[4] = compound: C[As](C)SC[C@H](NC(=O)CC[C@H](N)C(=O)O)C(=O)NCC(=O)O [Darinaparsin] + CC(C)C[C@H](NC(=O)[C@H](Cc1ccccc1)NC(=O)c1cnccn1)B(O)O [Bortezomib] (partner 0.002 µM)
Summary of the method: as §1

Row | Cell Line | relative viability ([1]; first compound 0.08 µM) | relative viability ([1]; first compound 0.253 µM) | relative viability ([1]; first compound 0.8 µM) | relative viability ([1]; first compound 2.53 µM) | relative viability ([1]; first compound 8 µM) | relative viability ([2]; first compound 0.08 µM) | relative viability ([2]; first compound 0.8 µM) | relative viability ([2]; first compound 2.53 µM) | relative viability ([2]; first compound 8 µM) | relative viability ([3]; first compound 0.08 µM) | relative viability ([3]; first compound 0.8 µM) | relative viability ([3]; first compound 2.53 µM) | relative viability ([3]; first compound 8 µM) | relative viability ([4]; first compound 0.08 µM) | relative viability ([4]; first compound 0.8 µM) | relative viability ([4]; first compound 2.53 µM) | relative viability ([4]; first compound 8 µM)
1 | NCI-H1793 | 1.16 | 0.617 | 0.971 | 0.757 | 0.522 | 0.675 | 0.632 | 0.902 | 0.916 | 0.344 | 0.305 | 0.278 | 0.385 |  |  |  | 
2 | HARA | 0.255 | 0.221 | 0.226 | 0.231 | 0.193 | 0.77 | 0.692 | 0.649 | 0.755 | 0.153 | 0.103 | 0.125 | 0.0804 | 1.49 | 1.12 | 1.06 | 1.25
3 | ABC-1 |  |  |  |  |  | 1.11 | 1.18 | 1.16 | 1.47 | 0.169 | 0.205 | 0.2 | 0.192 | 0.256 | 0.443 | 0.331 | 0.234
4 | NCI-H2342 | 0.89 | 0.683 | 0.761 | 0.702 | 0.793 |  |  |  |  | 0.545 | 0.443 | 0.53 | 0.44 |  |  |  | 
5 | NCI-H1944 | 0.624 | 0.576 | 0.511 | 0.52 | 0.394 | 0.834 | 0.796 | 0.664 | 0.947 | 0.245 | 0.263 | 0.251 | 0.243 |  |  |  | 
6 | A549 |  |  |  |  |  | 1.45 | 1.05 | 1.01 | 1.06 |  |  |  |  |  |  |  | 
7 | NCI-H358 | 0.172 | 0.159 | 0.152 | 0.142 | 0.142 | 0.463 | 0.412 | 0.422 | 0.52 | 0.1 | 0.102 | 0.124 | 0.101 |  |  |  | 
8 | EBC-1 |  |  |  |  |  | 0.2 | 0.211 | 0.246 | 0.223 |  |  |  |  | 0.473 | 0.559 | 0.471 | 0.507
9 | NCI-H1623 |  |  |  |  |  |  |  |  |  | 0.467 | 0.404 | 0.416 | 0.399 |  |  |  | 
10 | NCI-H2170 | 0.285 | 0.259 | 0.267 | 0.3 | 0.266 | 0.283 | 0.257 | 0.286 | 0.285 | 0.667 | 0.793 | 0.617 | 1.03 |  |  |  | 
11 | NCI-H1703 |  |  |  |  |  |  | 1.18 | 1.29 | 1.18 |  |  |  |  | 0.317 | 0.338 | 0.39 | 0.33
12 | NCI-H1563 | 0.773 | 0.827 | 0.86 | 0.756 | 0.764 | 1.01 | 1.02 | 0.914 | 1.14 |  |  |  |  | 0.831 | 0.862 | 0.828 | 0.93
13 | LK-2 | 0.273 | 0.221 | 0.263 | 0.343 | 0.15 | 0.978 | 0.622 | 0.926 | 1.05 | 0.203 |  | 0.177 | 0.175 |  |  |  | 
14 | NCI-H727 |  |  |  |  |  | 0.872 | 0.545 | 0.79 | 0.967 | 0.731 | 0.552 | 0.699 | 0.599 | 0.912 | 0.742 | 0.963 | 0.986
15 | Calu-6 |  |  |  |  |  | 1.45 | 1.14 | 1.09 | 1.06 |  |  |  |  | 1.04 | 0.968 | 0.949 | 0.945
16 | SK-MES-1 | 0.867 | 0.915 | 0.844 | 0.91 | 0.59 | 0.539 | 0.444 | 0.439 | 0.519 | 1.08 | 0.854 | 0.74 | 0.968 |  |  |  | 
17 | SW 900 | 0.495 | 0.489 | 0.471 | 0.461 | 0.451 |  |  |  |  | 0.677 | 0.538 | 0.658 | 0.555 |  |  |  | 
18 | NCI-H1299 |  |  |  |  |  | 1.09 | 0.955 | 0.958 | 0.853 |  |  |  |  | 1.01 | 0.99 | 1.03 | 1.04
19 | NCI-H522 | 0.903 | 1.02 | 0.874 | 0.93 | 0.645 |  |  |  |  | 0.508 | 0.602 | 0.534 | 0.599 |  |  |  | 
20 | ChaGo-K-1 | 0.27 | 0.277 | 0.262 | 0.298 | 0.243 |  |  |  |  | 0.266 | 0.206 | 0.242 | 0.232 | 1.18 | 1.07 | 1.01 | 0.767
21 | LCLC-103H | 0.423 | 0.464 | 0.445 | 0.437 | 0.402 |  |  |  |  | 0.491 | 0.517 | 0.507 | 0.441 | 1.05 | 0.978 | 1.14 | 1.35
22 | NCI-H1648 | 1.06 | 0.702 | 0.614 | 0.549 | 0.642 |  |  |  |  | 0.346 | 0.53 |  | 0.474 |  |  |  | 
23 | NCI-H1395 | 0.939 | 0.789 | 0.806 | 0.637 | 0.712 | 1.3 | 0.949 | 1.03 | 1.37 | 0.839 | 0.771 | 0.765 | 0.723 |  |  |  | 
24 | NCI-H1792 | 1 | 0.677 | 0.457 | 0.583 | 0.368 | 1.26 | 0.83 | 0.696 | 0.927 |  |  |  |  | 1.69 | 1.03 | 0.652 | 1.03
25 | NCI-H441 | 0.279 | 0.252 | 0.235 | 0.263 | 0.26 |  |  |  |  | 0.839 | 0.673 | 0.72 | 0.539 | 0.611 | 0.513 | 0.636 | 0.447
26 | IA-LM |  |  |  |  |  | 1.25 | 0.658 | 1.32 | 1.07 |  |  |  |  | 0.893 | 1.08 | 1.32 | 1.01
